Reference: patent US20130172306A1, “USE OF AN ESTROGEN DERIVATIVE FOR THE MANUFACTURE OF PHARMACEUTICAL COMPOSITIONS USEFUL FOR THE TREATMENT AND/OR PREVENTION OF PSYCHIATRIC DISEASES AND FOR THE TREATMENT AND PREVENTION OF SAID DISEASES” (priority 2010, published 2013)

How the values were obtained:
depression = details: preclinical and clinical studies from the literature; cited from earlier work
[1] = test system: LAPC-4 prostate tumour cells; details: cell cultures; Kuiao Y et al. 2007; cited from earlier work
[2] = test system: LAPC-4 prostate tumour xenograft; details: xenograft animals; Kuiao Y et al. 2007; cited from earlier work
[3] = test system: ovariectomised female Sprague-Dawley rats; assay: novelty suppressed feeding (NSF) test; type: in vivo, rat; details: through a stomach tube, tested two hours after administration, after 24 h food deprivation, versus vehicle, p<0.05
Protocol: In the course of our experiment the active agent 17-alpha-estradiol of formula (I) was tested in the animal model “novelty suppressed feeding” (NSF). NFS is a conflict test during which the subject of the test has to resolve a conflict between the stimulus of urgent food intake and the anxiety induced by a novel environment [Bodnoff S R et al.: The effects of chronic antidepressant treatment in an animal model of anxiety. Psychopharmacology (Berl) 95:298-302 (1988)]; Bodnoff S R et al.: A comparison of the effects of diazepam versus several typical and atypical anti-depressant drugs in an animal model of anxiety. Psychopharmacology (Berl) 97:277-279 (1989)]. The NSF model has widespread use in studying efficiency and mechanism of antidepressant drugs and in identification of new antidepressant drugs [Santarelli L et al.: Requirement of hippocampal neurogenesis for the behavioral effects of antidepressants. Science 301:805-809 (2003); Warner-Schmidt J L et al.: VEGF is an essential mediator of the neurogenic and behavioral actions of antidepressants. […]
At the beginning of the NSF test the test animal was placed in a corner of a 75×75×50 cm dark Plexiglas cage. […] The time from the start of the test to the beginning of food intake (first biting) was measured and recorded. Every test was recorded by means of a video camera suspended over the cage. […]

SK—N—SH cells = details: Green P S et al. 1997; cited from earlier work

Row | Structure (SMILES) | antidepressant effect (depression) | proliferation of LAPC-4 prostate tumour cells [1] | increase of the tumour [2] | time from the start of the test to the beginning of food intake (first biting) ([3]; A50 group: 50 μg/kg (b47 prints 50 mg/kg)) | time from the start of the test to the beginning of food intake (first biting) ([3]; A150 group: 150 μg/kg (b47 prints 150 mg/kg)) | neuroprotective effect (SK—N—SH cells)
1 | C[C@]12CC[C@@H]3c4ccc(O)cc4CC[C@H]3[C@@H]1CC[C@@H]2O [17-beta-estradiol] | no antidepressant effect |  |  |  |  | 
2 | C[C@]12CC[C@@H]3c4ccc(O)cc4CC[C@H]3[C@@H]1CC[C@H]2O [17-alpha-estradiol, estra-1,3,5(10)-triene-3,17α-diol] |  | inhibits proliferation | inhibits | shorter time than the control animals | shorter time than the control animals | had a neuroprotective effect
